# Reference: patent publication US11919965B2, “Methods of treating multiple myeloma with bispecific anti-BCMA x anti-CD3 antibodies” (Regeneron Pharmaceuticals, Inc., priority 2019, dated 2024)
# Tests used:
# monkey BCMA-MFC = test: SPR (Biacore 4000) binding kinetics at 25° C.
# Procedure: (§1) The CM5 Biacore sensor surface was derivatized by amine coupling with a monoclonal mouse anti-human Fc antibody (GE, #BR-1008-39) to capture purified anti-BCMA mAbs and anti-BCMA×anti-CD3 bispecific mAbs. All Biacore binding studies were performed in a buffer composed of 0.01M HEPES pH 7.4, 0.15M NaCl, 3 mM EDTA, 0.05% v/v Surfactant P20 (HBS-ET running buffer). […] Antigen samples were then injected over the anti-BCMA and anti-BCMA×anti-CD3 bispecific mAbs captured surfaces at a flow rate of 30 μL/minute. Antibody-reagent association was monitored for 5 minutes while dissociation in HBS-ET running buffer was monitored for 10 minutes. All of the binding kinetics experiments were performed at 25° C. Kinetic association (ka) and dissociation (kd) rate constants were determined by fitting the real-time sensorgrams to a 1:1 binding model using Scrubber 2.0c curve fitting software. Binding dissociation equilibrium constants (KD) and dissociative half-lives (t1/2) were calculated from the kinetic rate constants as: […]
# monkey BCMA-MMH = test: SPR (Biacore 4000) binding kinetics at 25° C.
# monkey BCMA-MMH, sequence (as listed by the source): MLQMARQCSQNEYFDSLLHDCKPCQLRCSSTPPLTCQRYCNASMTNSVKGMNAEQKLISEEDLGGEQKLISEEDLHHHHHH
# Procedure: as §1
# [1] = tested on: Jurkat/NFATLuc.3C7 reporter cells with HEK293 cells (BCMA negative); test: Jurkat/NFATLuc reporter bioassay (T-cell activation); type: cell-based, human
# Procedure: (§2) Activity of the anti-BCMA×anti-CD3 bispecific antibodies were assessed in a Jurkat/NFATLuc reporter bioassay utilizing several cell lines with varying levels of BCMA surface expression. The Jurkat cells were engineered to express an NFAT-luciferase reporter (Jurkat/NFATLuc.3C7), and 50,000 Jurkat reporter cells were combined with 50,000 BCMA positive (Daudi, MM1-S, NCI-H929, OPM-2, RPMI-8226, MOLP-8, or Raji) or BCMA negative (HEK293) cells in Thermo Nunclon delta 96 well white microwell plates (Thermo Scientific, Cat #136102) in 50 ul of assay media (RPMI media with 10% FBS and 1% P/S/G). Three-fold serial dilutions of the BCMA×CD3 bispecific antibodies (mAb25441D or mAb25442D), or a bivalent anti-BCMA antibody (mAb21581) were immediately added in 50 uL of assay buffer. The plates were gently agitated and incubated in a 37° C., 5% CO2 incubator for 4-6 hours. NFAT-Luciferase activity was determined using Promega One-Glo (Cat #E6130) and a Perkin Elmer Envision plate reader. RLU were plotted in GraphPad Prism using a four-parameter logistic equation over a 12-point response curve to calculate EC50 values. The no antibody treatment condition for each dose-response curve is also included in the analysis as a continuation of the three-fold serial dilution and is represented as the lowest dose. The signal to noise (S:N) is determined by taking the ratio of the highest RLU on the curve to the lowest.
# [2] = tested on: Jurkat/NFATLuc.3C7 reporter cells with MM1-S cells (BCMA positive); test: as above; type: cell-based, human
# Procedure: as §2
# [3] = tested on: Jurkat/NFATLuc.3C7 reporter cells with RPMI-8226 cells (BCMA positive); test: as above; type: cell-based, human
# Procedure: as §2
# [4] = tested on: Jurkat/NFATLuc.3C7 reporter cells with Raji cells (BCMA positive); test: as above; type: cell-based, human
# Procedure: as §2
# [5] = tested on: BCMA+ OPM-2-luciferase tumors; test: Xenogenic tumor model, i.v. OPM-2-luciferase in PBMC-engrafted NSG mice, bioluminescence (Example 15); type: in vivo, mouse; details: 0.4 mg/kg; for tumor burden: three doses; for Radiance [p/s/cm2^2/sr] 5 days post-implantation (mean ± SEM) / Radiance [p/s/cm2^2/sr] 11 days post-implantation (mean ± SEM) / Radiance [p/s/cm2^2/sr] 20 days post-implantation (mean ± SEM): before first dose (day 21)
# Procedure: (§3) To determine the in vivo efficacy of anti-BCMA×anti-CD3 bispecific antibodies (Abs), a xenogenic tumor study was performed. On day 0, immunodeficient NOD.Cg-Prkdc^scidII2rg^tm1Wjl/SzJ (NSG) mice were intravenously administered 2×10^6 BCMA^+ OPM-2 human multiple myeloma tumor cells that were engineered to also express firefly luciferase (OPM-2-luciferase cells). On day 10, the mice were intraperitoneally injected with 4×10^6 human peripheral blood mononuclear cells (PBMC) from a normal, healthy donor. […] The mice were administered these Abs twice more on days 25 and 28, for a total of three doses. Tumor growth was assessed through day 61 by measuring tumor bioluminescence (BLI) in anesthetized animals. As a positive control, a group of mice (n=5) was given only OPM-2-luciferase cells, but not PBMC or antibody.
# as §3, with “Implantation and measurement” for “To determine the in vivo efficacy”, “of” for “of anti-BCMA×anti-CD3 bispecific antibodies (Abs), a”, “tumors:” for “tumor study was performed.”, “NOD.Cg-Prkdc^scidII2rg^tm1Wkl/SzJ” for “NOD.Cg-Prkdc^scidII2rg^tm1Wjl/SzJ”
# Measurement of xenogenic tumor growth: BLI imaging was used to measure tumor burden. Mice were injected IP with 150 mg/kg of the luciferase substrate D-luciferin suspended in PBS. Five minutes after this injection, BLI imaging of the mice was performed under isoflurane anesthesia using the Xenogen IVIS system. Image acquisition was carried out with the field of view at D, subject height of 1.5 cm, and medium binning level with automatic exposure time determined by the Living Image Software. BLI signals were extracted using Living Image software: regions of interest were drawn around each tumor mass and photon intensities were recorded as p/s/cm2/sr.
# monkey BCMA-MFC, sequence (as listed by the source): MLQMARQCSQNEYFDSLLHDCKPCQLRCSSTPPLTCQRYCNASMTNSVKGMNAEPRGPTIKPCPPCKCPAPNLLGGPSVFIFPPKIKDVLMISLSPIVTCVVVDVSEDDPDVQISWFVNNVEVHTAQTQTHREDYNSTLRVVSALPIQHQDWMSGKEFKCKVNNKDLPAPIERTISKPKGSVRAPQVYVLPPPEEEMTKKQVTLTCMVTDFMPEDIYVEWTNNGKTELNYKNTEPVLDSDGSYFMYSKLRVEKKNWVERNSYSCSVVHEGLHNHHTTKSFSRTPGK
Substance,ka (monkey BCMA-MFC) [M⁻¹ s⁻¹],kd (monkey BCMA-MFC) [s⁻¹],ka (monkey BCMA-MMH) [M⁻¹ s⁻¹],kd (monkey BCMA-MMH) [s⁻¹],S:N (highest RLU to lowest) [1],S:N (highest RLU to lowest) [2],S:N (highest RLU to lowest) [3],S:N (highest RLU to lowest) [4],Radiance [p/s/cm2^2/sr] 26 days post-implantation (mean ± SEM) [5] [p/s/cm2^2/sr],Radiance [p/s/cm2^2/sr] 31 days post-implantation (mean ± SEM) [5] [p/s/cm2^2/sr],Radiance [p/s/cm2^2/sr] 34 days post-implantation (mean ± SEM) [5] [p/s/cm2^2/sr],Radiance [p/s/cm2^2/sr] 38 days post-implantation (mean ± SEM) [5] [p/s/cm2^2/sr],Radiance [p/s/cm2^2/sr] 40 days post-implantation (mean ± SEM) [5] [p/s/cm2^2/sr],Radiance [p/s/cm2^2/sr] 47 days post-implantation (mean ± SEM) [5] [p/s/cm2^2/sr],Radiance [p/s/cm2^2/sr] 54 days post-implantation (mean ± SEM) [5] [p/s/cm2^2/sr],Radiance [p/s/cm2^2/sr] 61 days post-implantation (mean ± SEM) [5] [p/s/cm2^2/sr],tumor burden [5],Radiance [p/s/cm2^2/sr] 5 days post-implantation (mean ± SEM) [5] [p/s/cm2^2/sr],Radiance [p/s/cm2^2/sr] 11 days post-implantation (mean ± SEM) [5] [p/s/cm2^2/sr],Radiance [p/s/cm2^2/sr] 20 days post-implantation (mean ± SEM) [5] [p/s/cm2^2/sr]
"REGN5458: anti-BCMA×anti-CD3 bispecific antibody: mAb21581 BCMA heavy chain, mAb7221G CD3 heavy chain and common light chain; SEQ ID NOs 126, 127, 129",528000,8.8e-05,182000,0.00909,1,165,55,123,1.73E+06 ± 8.69E+05,3.50E+06 ± 2.42E+06,4.85E+06 ± 3.24E+06,5.30E+06 ± 3.44E+06,5.06E+06 ± 3.36E+06,7.76E+05 ± 7.85E+04,5.78E+05 ± 1.15E+05,5.23E+05 ± 4.10E+04,reduced tumor burdens to background levels in the majority of animals,5.87E+05 ± 2.40E+04,6.19E+05 ± 4.39E+04,1.81E+06 ± 2.37E+05
"REGN5459: anti-BCMA×anti-CD3 bispecific antibody: mAb21581 BCMA heavy chain, mAb7221G20 CD3 heavy chain and common light chain; SEQ ID NOs 126, 128, 129",482000,7.15e-05,223000,0.00864,1,120,42,78,1.28E+06 ± 7.36E+05,1.98E+06 ± 1.36E+06,4.24E+06 ± 3.69E+06,3.21E+06 ± 2.52E+06,3.84E+06 ± 3.34E+06,7.34E+05 ± 2.62E+04,6.41E+05 ± 5.96E+04,6.03E+05 ± 5.29E+04,reduced tumor burdens to background levels in the majority of animals,5.09E+05 ± 3.56E+04,6.45E+05 ± 2.39E+04,2.13E+06 ± 1.69E+05
